Patent publication US20210163459A1, “PESTICIDALLY ACTIVE AZETIDINE SULFONES AMIDE ISOXAZOLINE DERIVATIVES” (SYNGENTA CROP PROTECTION AG, priority 2018, published 2021)

What was measured:
Euschistus heros = Euschistus heros (Neotropical Brown Stink Bug) test on sprayed soybean leaves; assay type: in vivo; conditions: 120 h, application rate of 200 ppm, N2 nymphs, assessed 5 days after infestation in comparison to untreated samples, read-out: effect in at least one of the two categories (mortality or growth inhibition)
Method: Euschistus heros(Neotropical Brown Stink Bug)
Soybean leaves on agar in 24-well microtiter plates were sprayed with aqueous test solutions prepared from 10′000 ppm DMSO stock solutions. After drying the leaves were infested with N2 nymphs. The samples were assessed for mortality and growth inhibition in comparison to untreated samples 5 days after infestation.
The following compounds gave an effect of at least 80% in at least one of the two categories (mortality or growth inhibition) at an application rate of 200 ppm: A1, A2

Spodoptera littoralis = Spodoptera littoralis (Egyptian Cotton Leaf Worm) test on sprayed cotton leaf discs; assay type: in vivo; conditions: foliar, 72 h, application rate of 200 ppm, L1 larvae, assessed 3 days after infestation in comparison to untreated samples, read-out: control (mortality, anti-feeding effect, growth inhibition)
Method: Spodoptera littoralis (Egyptian Cotton Leaf Worm)
Cotton leaf discs were placed onto agar in 24-well microtiter plates and sprayed with aqueous test solutions prepared from 10′000 ppm DMSO stock solutions. After drying the leaf discs were infested with five L1 larvae. The samples were assessed for mortality, anti-feeding effect, and growth inhibition in comparison to untreated samples 3 days after infestation. Control of Spodoptera littoralis by a test sample is given when at least one of the categories mortality, anti-feedant effect, and growth inhibition is higher than the untreated sample.

Compound: COC(=O)OCN(C(=O)c1ccc(C2=NO[C@@](c3cc(Cl)c(F)c(Cl)c3)(C(F)(F)F)C2)cc1C)C1CN(S(=O)(=O)C(F)F)C1 [Compound A2, [[4-[(5S)-5-(3,5-dichloro-4-fluoro-phenyl)-5-(trifluoromethyl)-4H-isoxazol-3-yl]-2-methyl-benzoyl]-[1-(difluoromethylsulfonyl)azetidin-3-yl]amino]methyl methyl carbonate]
- percent effect (mortality or growth inhibition) at 200 ppm (Euschistus heros): ≥ 80%
- mortality at 200 ppm (Spodoptera littoralis): ≥ 80%
